Calls of active or inactive are those of the source. The calls are words filed in the database; no cut-off is given here.
Assays:
[1] = molecular target: Kynurenine/alpha-aminoadipate aminotransferase, mitochondrial (Rattus norvegicus) (UniProt Q64602); assay: Ratio of Kinact to Ki for rat KAT2 using L-kynurenine as substrate by SpectraMax plate reader analysis
[2] = molecular target: Kynurenine--oxoglutarate transaminase 3 (Homo sapiens, UniProt Q6YP21); assay: Inhibition of human KAT3 using L-kynurenine as substrate measured after 24 hrs by SpectraMax plate reader analysis
Chain of Kynurenine--oxoglutarate transaminase 3 (Q6YP21 whole entry): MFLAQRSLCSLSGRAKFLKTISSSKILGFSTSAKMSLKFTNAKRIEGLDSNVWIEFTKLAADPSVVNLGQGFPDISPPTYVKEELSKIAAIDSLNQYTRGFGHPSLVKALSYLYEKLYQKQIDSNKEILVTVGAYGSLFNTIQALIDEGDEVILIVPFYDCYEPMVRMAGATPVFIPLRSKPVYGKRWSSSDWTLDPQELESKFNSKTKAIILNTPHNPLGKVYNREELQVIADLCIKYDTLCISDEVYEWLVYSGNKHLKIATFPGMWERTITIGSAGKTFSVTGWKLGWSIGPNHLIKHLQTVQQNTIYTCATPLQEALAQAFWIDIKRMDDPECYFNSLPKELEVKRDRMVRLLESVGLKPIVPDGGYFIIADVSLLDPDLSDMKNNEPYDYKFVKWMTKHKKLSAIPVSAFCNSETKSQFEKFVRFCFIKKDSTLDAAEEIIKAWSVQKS

[3] = test system: Kynurenine/alpha-aminoadipate aminotransferase, mitochondrial (Homo sapiens), Q8N5Z0 [K240S,F241G]; assay: Binding affinity to C-terminal hexa histidine tagged full length human KAT2 K240S/F241G mutant harboring C-terminal thrombin cleavage site at 1 mM after 2 hrs by X-ray crystallography in presence of 2 mM PLP
Chain of Kynurenine/alpha-aminoadipate aminotransferase, mitochondrial (Homo sapiens), Q8N5Z0 [K240S,F241G] (Q8N5Z0 whole entry K240S/F241G): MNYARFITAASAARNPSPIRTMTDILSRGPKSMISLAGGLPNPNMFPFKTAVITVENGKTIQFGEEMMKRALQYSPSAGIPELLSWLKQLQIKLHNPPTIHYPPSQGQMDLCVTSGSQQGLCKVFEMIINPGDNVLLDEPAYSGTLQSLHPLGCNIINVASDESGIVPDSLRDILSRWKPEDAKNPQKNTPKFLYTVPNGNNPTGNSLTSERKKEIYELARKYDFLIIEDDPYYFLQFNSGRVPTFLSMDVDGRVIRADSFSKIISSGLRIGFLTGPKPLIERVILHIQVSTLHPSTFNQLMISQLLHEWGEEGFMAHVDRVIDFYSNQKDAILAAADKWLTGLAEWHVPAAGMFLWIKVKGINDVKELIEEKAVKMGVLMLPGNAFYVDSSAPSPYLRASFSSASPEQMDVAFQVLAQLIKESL

[4] = molecular target: T1, Kynurenine/alpha-aminoadipate aminotransferase, mitochondrial (Homo sapiens, UniProt Q8N5Z0); assay: Irreversible inhibition of human KAT2 using L-kynurenine as substrate measured every 5 mins over 16 hrs by SpectraMax plate reader analysis
[5] = molecular target: T2, Kynurenine--oxoglutarate transaminase 1 (Homo sapiens, UniProt Q16773); assay: Inhibition of human KAT1 using L-kynurenine as substrate measured after 16 hrs by SpectraMax plate reader analysis
T2 sequence (Q16773 whole entry): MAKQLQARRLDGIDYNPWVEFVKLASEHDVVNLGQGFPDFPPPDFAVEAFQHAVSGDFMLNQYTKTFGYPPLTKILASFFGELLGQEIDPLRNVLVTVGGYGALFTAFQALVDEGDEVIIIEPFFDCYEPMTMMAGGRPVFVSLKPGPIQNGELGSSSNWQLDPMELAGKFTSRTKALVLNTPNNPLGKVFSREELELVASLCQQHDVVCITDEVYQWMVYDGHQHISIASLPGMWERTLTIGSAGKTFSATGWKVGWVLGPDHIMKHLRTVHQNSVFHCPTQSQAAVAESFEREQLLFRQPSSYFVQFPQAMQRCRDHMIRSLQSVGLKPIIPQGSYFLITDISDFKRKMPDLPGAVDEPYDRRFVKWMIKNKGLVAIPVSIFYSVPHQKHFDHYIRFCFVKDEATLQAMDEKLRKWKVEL

[6] = molecular target: T1, Kynurenine/alpha-aminoadipate aminotransferase, mitochondrial; assay: Ratio of Kinact to Ki for human KAT2 using L-kynurenine as substrate by SpectraMax plate reader analysis
Target sequence in this assay (Q8N5Z0 30-425 limits assumed): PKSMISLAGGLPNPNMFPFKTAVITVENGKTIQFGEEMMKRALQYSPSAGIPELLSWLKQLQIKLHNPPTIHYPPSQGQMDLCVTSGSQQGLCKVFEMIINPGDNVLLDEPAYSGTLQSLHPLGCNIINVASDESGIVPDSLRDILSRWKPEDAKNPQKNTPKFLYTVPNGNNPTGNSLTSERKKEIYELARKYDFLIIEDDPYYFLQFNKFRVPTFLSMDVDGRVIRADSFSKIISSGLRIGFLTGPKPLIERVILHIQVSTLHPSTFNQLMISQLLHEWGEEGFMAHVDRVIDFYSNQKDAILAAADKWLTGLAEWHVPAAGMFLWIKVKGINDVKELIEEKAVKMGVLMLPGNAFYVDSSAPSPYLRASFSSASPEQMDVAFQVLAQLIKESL

Rattus norvegicus = assay: Decrease in extracellular KYNA level in Sprague-Dawley rat prefrontal cortex at 10 mg/kg, sc measured for 4 hrs by microdialysis method; assay type: functional, organism-based; parameters: dose 10 mg/kg
Brain [7] = assay: AUC in Sprague-Dawley rat brain at 10 mg/kg, sc by LC-MS/MS analysis; assay type: ADME, organism-based; parameters: dose 10 mg/kg, route subcutaneous; details: in vivo
[8] = Unbound fraction in Sprague-Dawley rat brain at 10 mg/kg, sc by equilibrium dialysis method; assay type: ADME, organism-based; parameters: dose 10 mg/kg, route subcutaneous
Brain [9] = assay: fAUC in Sprague-Dawley rat brain at 10 mg/kg, sc by equilibrium dialysis method; assay type: ADME, organism-based; parameters: dose 10 mg/kg, route subcutaneous; details: in vivo
[10] = molecular target: T1, Kynurenine/alpha-aminoadipate aminotransferase, mitochondrial; assay: Inhibition of human KAT2 using L-kynurenine as substrate measured after 15-20 hrs by SpectraMax plate reader analysis
Target sequence in this assay (Q8N5Z0 whole entry): as the sequence (Q8N5Z0 whole entry K240S/F241G) above, with S240K, G241F counted along it

Brain [11] = assay: Ratio of hydroxamate fAUC to compound fAUC in Sprague-Dawley rat brain at 10 mg/kg, sc by equilibrium dialysis method; assay type: ADME, organism-based; parameters: dose 10 mg/kg, route subcutaneous; details: in vivo

Chain of Kynurenine/alpha-aminoadipate aminotransferase, mitochondrial (Rattus norvegicus) (Q64602 30-425 limits assumed): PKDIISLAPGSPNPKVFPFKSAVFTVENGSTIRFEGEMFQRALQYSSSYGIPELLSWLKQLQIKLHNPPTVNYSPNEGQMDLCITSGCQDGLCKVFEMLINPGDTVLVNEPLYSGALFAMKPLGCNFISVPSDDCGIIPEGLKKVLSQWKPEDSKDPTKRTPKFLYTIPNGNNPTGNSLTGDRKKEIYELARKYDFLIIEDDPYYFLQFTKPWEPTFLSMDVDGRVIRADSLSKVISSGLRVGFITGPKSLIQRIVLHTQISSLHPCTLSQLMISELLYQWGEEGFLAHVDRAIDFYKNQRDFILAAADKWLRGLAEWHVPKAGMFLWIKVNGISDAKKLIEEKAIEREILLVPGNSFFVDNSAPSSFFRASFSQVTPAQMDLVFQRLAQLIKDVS

Row | Ratio [1] | IC50 [2] [nM] | Activity [3] | Ki [4] [nM] | Kinact [4] [min⁻¹] | IC50 [5] [nM] | Ratio [6] | AUC (Brain [7]) [ng·h/g] | fraction unbound [8] | fAUC (Brain [9]) [ng·h/g] | IC50 [10] [nM] | Ratio (Brain [11]) | Compound | inhibition (Rattus norvegicus)
1 | 1840 | 6400 | Active | 7.7 | 0.0137 | 15300 | 31700 |  |  |  |  |  | COc1ccc2c(c1)N(O)C(=O)[C@@H](N)C2 | 
2 | 573 | 9040 | Active | 14.2 | 0.0156 | 30400 | 18500 | 1486 | 0.393 | 584 |  |  | N[C@H]1Cc2ccccc2N(O)C1=O | Active
3 | 9070 | 1230 | Active | 7.1 | 0.0108 | 2040 | 26800 | 6602 | 0.0099 | 65 | 23 | 9 | N[C@H]1Cc2cc(Oc3ccccc3)ccc2N(O)C1=O | Active
